From ChEMBL document CHEMBL4477172, “Bougainvinones A-H, Peltogynoids from the Stem Bark of Purple Bougainvillea spectabilis and Their Cytotoxic Activity” (J Nat Prod, 2016)

Key:
Format in all cases: functional, cell-based
[1] = test system: KB; test: Cytotoxicity against human KB cells after 48 hrs by MTT assay
[2] = test system: HeLa S3; test: Cytotoxicity against human HeLaS3 cells after 48 hrs by MTT assay; settings: HeLa S3, 48 h
[3] = test system: HT-29; test: Cytotoxicity against human HT-29 cells after 48 hrs by MTT assay; settings: HT-29, 48 h
[4] = test system: HepG2; test: Cytotoxicity against human HepG2 cells after 48 hrs by MTT assay; settings: HepG2, 48 h
[5] = test system: MCF7; test: Cytotoxicity against human MCF7 cells after 48 hrs by MTT assay; settings: MCF7, 48 h

Row | SMILES | IC50 [1] [µM] | IC50 [2] [µM] | IC50 [3] [µM] | IC50 [4] [µM] | IC50 [5] [µM]
1 | COc1ccc2c(c1)COc1c-2oc2c(C)c(O)c(C)c(OC)c2c1=O | > 10 | > 10 | > 10 | > 10 | > 10
2 | COc1ccc2c(c1)COc1c-2oc2c(C)c(O)c(C)c(O)c2c1=O | 8.1 | 8.4 | 8.8 | 7.4 | 9.7
3 | COc1c(C)c(O)c(C)c2oc3c(c(=O)c12)OCc1ccccc1-3 | > 10 | > 10 | > 10 | > 10 | > 10
4 | COc1c(C)c(OC)c2c(=O)c3c(oc2c1C)-c1ccccc1CO3 | > 10 | > 10 | > 10 | > 10 | > 10
5 | Cc1c(O)c(C)c2oc3c(c(=O)c2c1O)OCc1ccccc1-3 | > 10 | > 10 | > 10 | > 10 | > 10
6 | COc1c(C)c(OC)c2c(=O)c3c(oc2c1C)-c1c(O)cccc1CO3 | > 10 | > 10 | > 10 | > 10 | > 10
7 | COc1c(C)c(O)c2c(=O)c3c(oc2c1C)-c1c(O)cccc1CO3 | 6.6 | > 10 | > 10 | > 10 | > 10
8 | Cc1c(O)c(C)c2oc3c(c(=O)c2c1O)OCc1cccc(O)c1-3 | 9 | > 10 | > 10 | > 10 | > 10
9 | COc1cccc2c1C(=O)c1c(O)c3c(c(O)c1C2=O)C[C@@](O)(C(=O)CO)C[C@@H]3O[C@H]1C[C@H](N)[C@H](O)[C@H](C)O1 [DOXORUBICIN] | 0.09 | – | 0.26 | 1.54 | –
